These results are taken from patent publication US9896433B2, “Antiviral compounds” (priority 2013, dated 2018).

Assay in all cases: microbe, parasite or virus in culture
Assay [1] concerns pseudotyped VSV G particles (VSVpp). Type of assay: cell-based. The conditions noted are these: Vesicular stomatitis virus, 72 h, read-out: VSVpp (EC50, μM).
In assay [2] the test system is Pseudotyped HCV GT1a particles (HCVpp, H77 strain E1/E2). The class given is cell-based, Hepatitis C virus GT1a H77 strain. As to conditions: Hepatitis C virus, 72 h, read-out: HCVpp GT-1a (EC50, μM).
Assay [3] has as its system Pseudotyped HCV GT1b particles (HCVpp, Con1 strain E1/E2). Type of assay: cell-based, Hepatitis C virus GT1b Con1 strain. As to conditions: Hepatitis C virus, 72 h, read-out: HCVpp GT-1b (EC50, μM).

By EC50 is commonly meant the concentration giving half of the maximal effect. Regarding `Nc1nc(Nc2cc(C(F)(F)F)ccn2)n[nH]1` [Compound 6, N^3-(4-Trifluoromethyl-pyridin-2-yl)-1H-[1,2,4] triazole-3,5-diamine], the EC50 in assay [1] was at least 100 µM; in assay [2], 62.2 µM.

For the molecule `Nc1nc(Nc2ccnc(Cl)c2)n[nH]1` [Compound 1, N^3-(2-Chloro-pyridin-4-yl)-1H-[1,2,4]triazole-3,5-diamine], the figures for the EC50 in assay [1], in assay [3] and in assay [2] were at least 100 µM, 48.9 µM and 2.76 µM, respectively.

Consider `CC(C)(C)c1csc(Nc2n[nH]c(N)n2)n1` [Compound 5, N^3-(4-tert-Butyl-thiazol-2-yl)-1H-[1,2,4]triazole-3,5-diamine], for which the EC50 in assay [1] and in assay [2] was at least 100 µM each time.

For the molecule `Cn1ncc2cc(Nc3n[nH]c(N)n3)ccc2c1=O` [Compound 10, 6-(5-Amino-1H-[1,2,4]triazol-3-ylamino)-2-methyl-2H-phthalazin-1-one], the EC50 in assay [1] is at least 100 µM; in assay [3], 3.68 µM.

As to `Cn1nc(Cl)cc(Nc2n[nH]c(N)n2)c1=O` [Compound 8, 4-(5-Amino-1H-[1,2,4]triazol-3-ylamino)-6-chloro-2-methyl-2H-pyridazin-3-one], the EC50 in assay [1] and in assay [3] was at least 100 µM throughout.

For `Nc1nc(Nc2cccc(C(F)(F)F)n2)n[nH]1` [Compound 4, N^3-(6-Trifluoromethyl-pyridin-2-yl)-1H-[1,2,4] triazole-3,5-diamine], the EC50 in assay [1], in assay [3] and in assay [2] was at least 100 µM in each case.

Regarding `Nc1nc(Nc2ccc(C(F)(F)F)nc2)n[nH]1` [Compound 2, N^3-(6-Trifluoromethyl-pyridin-3-yl)-1H-[1,2,4] triazole-3,5-diamine], the concentration giving a half-maximal response (EC50) is at least 100 µM in assay [1], at least 100 µM in assay [3] and 75.4 µM in assay [2].

For the molecule `Nc1nc(Nc2ccn3ccnc3c2)n[nH]1` [Compound 12, N^3-Imidazo[1,2-a]pyridin-7-yl-1H-[1,2,4]triazole-3,5-diamine], the EC50 in assay [1] and in assay [3] was above 100 µM in each case.

Consider `Nc1nc(Nc2cc(Cl)nc(Cl)c2)n[nH]1` [Compound 3, N^3-(2,6-Dichloro-pyridin-4-yl)-1H-[1,2,4]triazole-3,5-diamine], for which the EC50 in assay [1] was at least 100 µM; in assay [3] it was 7.08 µM; in assay [2], 0.191 µM.

As to `Nc1nc(Nc2ccc3c(=O)[nH]ncc3c2)n[nH]1` [Compound 9, 6-(5-Amino-1H-[1,2,4]triazol-3-ylamino)-2H-phthalazin-l-one], the EC50 in assay [1] is at least 100 µM; in assay [3] it was 4.71 µM.

`Nc1nc(Nc2csc(Cl)c2)n[nH]1` [Compound 7, N^3-(5-Chloro-thiophen-3-yl)-1H-[1,2,4]triazole-3,5-diamine]: the EC50 was at least 100 µM in assay [1] and 16.4 µM in assay [2].

`Nc1nc(Nc2ccc3nccn3c2)n[nH]1` [Compound 11, N^3-Imidazo[1,2-a]pyridin-6-yl-1H-[1,2,4]triazole-3,5-diamine]: the EC50 was at least 100 µM in assay [1] and 22.3 µM in assay [2].
